In PubChem BioAssay (NCI) one finds TGI and GI50 data, which are given here for 34 compounds.

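Assay format: 96-well plates, 48-hour exposure. GI50 is the concentration that inhibits growth by half. At the TGI there is no net growth.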

What all share (assay): inhibition of tumour cell growth, NCI panel, 48 h
The test system of assay [1] is MDA-N.
Assay [2] deals with NCI/ADR-RES ovarian.
Assay [3] relates to SF-539 CNS.
For assay [4], the system named is NCI-H460 lung.
In assay [5] the test system is OVCAR-4 ovarian.
Assay [6] deals with SK-MEL-28 melanoma.
In assay [7] the test system is MDA-MB-231 breast.
Assay [8] relates to M14 melanoma.
Assay [9] deals with KM12 colon.
Assay [10] concerns HL-60(TB) leukemia.

Consider `COC(=O)C1Cc2c([nH]c3ccccc23)-c2[nH]c3ccccc3c2CC(NC(C)=O)C(=O)N2CCCC2C(=O)N1` (configuration not stated), for which the TGI in assay [1], in assay [2], in assay [3], in [4], in assay [5] and in assay [6] was > 100 µM each time. Besides, the TGI in [7] is > 100 µM.

As to `COc1cc(C(=O)N(C(=O)N2CCCCC2)c2ccccc2)cc(OC)c1OC`, the TGI in [8], in [1], in [9], in assay [2], in assay [3] and in assay [4] was > 100 µM in each case. Also, the TGI in assay [6] and in [7] was > 100 µM each time.

On to `CCOC(=O)C1=C(C)N(c2ccc(Cl)cc2)C2(O)C=CC(Nc3ccc(Cl)cc3)=C3C(=O)N(c4ccccc4)C(=O)C312` (configuration not stated), for which the TGI in [8] came to 19.7 µM; in assay [9] it was 23.1 µM; in assay [10] it was 23.4 µM; in [2] it was 12.7 µM; in assay [3] it was 18.3 µM; in [4] it was 13.7 µM. The TGI in [5] was found to be 15.1 µM; in assay [6], 6.89 µM; in assay [7], 35.2 µM.

`CON(C(=O)OC(C)(C)C)c1ccccc1`: the TGI in [8], in [9], in [10], in [2], in assay [4] and in assay [5] was > 100 µM each time. The TGI in assay [6] and in [7] was > 100 µM in each case.

Turning to `CCSc1[nH]c(NC(=NC(C)C)NC(=O)c2ccccc2)c(C(N)=O)c1C(N)=O`, the TGI in assay [8], in assay [1], in [9], in assay [10], in assay [5] and in [6] was > 10 µM in each case. In addition, the TGI in [7] is > 10 µM.

Take `COc1ccc(/C=C(\C2=NC(=O)CS2)c2nc3ccccc3[nH]2)cc1`: the TGI in assay [8] is > 100 µM; in assay [9], > 100 µM; in assay [10] it was > 100 µM; in assay [3], 41.9 µM; in [4], > 100 µM; in assay [5], > 100 µM. Further, in [6], the TGI is > 100 µM.

Regarding `CC(C)(CO)NC(=O)c1cccs1`, the TGI in assay [8], in assay [9], in [10], in assay [2], in [4] and in assay [5] was > 100 µM each time. Moreover, the TGI in assay [6] and in assay [7] was > 100 µM each time.

On to `COc1ccc(OC)c(-c2cc(=O)c3cc4c(cc3[nH]2)OCO4)c1`, for which the TGI was > 100 µM in [8]; > 46 µM in [9]; > 26.1 µM in assay [10]; 16.2 µM in assay [3]; > 37.2 µM in assay [4]; > 100 µM in [5]. Also, the TGI in assay [6] was > 100 µM.

Regarding `O=P(Nc1cccc(Cl)c1)(Oc1ccccc1)N(CCCl)CCCl` (configuration not stated), the TGI in assay [8] was 28.6 µM; in assay [9] it was 28.6 µM; in assay [10], > 100 µM; in [3], 31.2 µM; in assay [5], 25.4 µM; in assay [6], 30.5 µM.

Turning to `O=C(NCCC1CN(S(=O)(=O)C(F)(F)F)c2ccccc21)OCc1ccccc1` (configuration not stated), the TGI in assay [8], in assay [9], in assay [2], in assay [4], in [5] and in assay [6] was > 100 µM throughout. The TGI in assay [7] was > 100 µM.

Turning to `O=[N+]([O-])c1ccc2c(N=Nc3ccc4ccccc4c3O)c(O)cc(S(=O)(=O)O)c2c1`, the TGI in assay [8] was 32.4 µM; in [9], > 100 µM; in assay [10], 23.1 µM; in assay [2], > 90.3 µM; in assay [3] it was > 28.5 µM; in assay [4], > 100 µM. Besides, the TGI in assay [5], in assay [6] and in [7] was > 100 µM throughout.

For the compound `C[C@]12CCC(=O)C=C1CC[C@@H]1C2CC[C@@]2(C)C1CC[C@@H]2OC(=O)C12OC1CCC2=O` (some centres not stated), the TGI in assay [8] was found to be 32.9 µM; in assay [9], 35 µM; in [10] it was 33.5 µM; in assay [3], 36.6 µM; in [4], 31.8 µM; in assay [5] it was 41.5 µM. For the same compound, in [6], the TGI is 31.6 µM.

For the compound `Cc1ccc(O)cc1` (tested in a mixture with another compound), the TGI in [8], in assay [9], in assay [10], in assay [2], in assay [3] and in assay [4] was > 100 µM throughout. Further, the TGI in assay [5], in [6] and in assay [7] was > 100 µM in each case.

`COc1c(C)c(C/C=C(\C)CCCCO)c(OC)c2ccccc12`: the TGI was > 100 µM in [8]; > 100 µM in assay [1]; 54.9 µM in assay [9]; > 100 µM in assay [2]; > 100 µM in assay [3]; 37.8 µM in assay [4]. Besides, the TGI in assay [5] and in assay [7] was > 100 µM in each case.

As to `COCC1N=C(c2cc(OC)c(OC)c(OC)c2-c2cc3c(cc2[C@@H](C)O)OCO3)O[C@H]1c1ccccc1` (some centres not stated), the TGI in assay [9] was > 100 µM; in assay [10], > 100 µM; in [2], > 95.7 µM; in assay [3], > 100 µM; in assay [4], > 100 µM; in assay [5], > 100 µM. The TGI in assay [6] is > 100 µM.

Consider `COc1ccc(C=NCCCN=Cc2ccc(OC)cc2O)c(O)c1`, for which the TGI in assay [8], in assay [9], in [10], in assay [4], in [5] and in [6] was > 100 µM throughout. Moreover, the TGI in assay [7] is > 100 µM.

With `O=C1C(=Cc2ccc([N+](=O)[O-])o2)C(=O)N(CCc2ccccc2)S(=O)(=O)N1CCc1ccccc1`, the TGI in [8] was 29 µM; in [9], > 100 µM; in assay [10], 41.9 µM; in assay [3] it was > 100 µM; in assay [4], > 100 µM; in assay [5], 30 µM. This compound also had a TGI in [6] of 28 µM.

For the compound `O=C(CSc1nnc(-c2ccc(N=Cc3ccc(Cl)cc3)cc2)o1)Nc1cccc([N+](=O)[O-])c1`, the TGI in [8], in assay [9], in assay [10], in assay [4], in assay [5] and in [6] was > 100 µM throughout.

Regarding `COC(=O)CC1NC(=O)C1C(C)(OC)OC` (configuration not stated), the TGI in assay [8], in [10], in assay [3], in assay [4], in [5] and in assay [6] was > 100 µM in each case.

Consider `CCC1OC2C(CC=C(C)C)=C3OC(C)(O)C(C)(CC)C(=O)C3=C3OC(=O)C=C1C32` (configuration not stated), for which the TGI in assay [8] was > 100 µM; in assay [9], > 100 µM; in [2] it was 95.8 µM; in assay [3], 23.1 µM; in [4], 92.5 µM; in assay [5], > 100 µM. Also, the results for the TGI in [6] and in [7] were > 100 µM and 41.1 µM, respectively.

As for `CNC(=O)c1cc(Oc2cccc3nc(NC(=O)Nc4ccc(F)cc4F)ccc23)ccn1`, the GI50 in assay [8] is 1.89 µM; in [2] it was 1.6 µM; in assay [6], 1.42 µM; in assay [7], 1.59 µM. Moreover, the TGI in [8], in assay [2], in assay [6] and in assay [7] was > 50 µM throughout.

On to `Nc1ccn(CCCC(c2ccccc2)P(=O)(O)O)c(=O)n1` (configuration not stated), for which the TGI in assay [8], in assay [9], in assay [10], in assay [3], in assay [4] and in assay [6] was > 100 µM throughout.

As for `Cc1cc(=O)[nH]c(NNC(C#N)c2ccc(N(C)C)cc2)n1` (configuration not stated), the TGI in assay [8], in [9], in assay [10], in [3], in assay [4] and in [5] was > 100 µM in each case. Moreover, in assay [6], the TGI was > 100 µM.

On to `COc1cccc(/C=N/NC(=O)CN(C)C)c1O`, for which the TGI in [8], in assay [1], in assay [9], in [10], in assay [2] and in [3] was > 100 µM in each case. Moreover, the TGI in [4], in assay [5] and in assay [6] was > 100 µM each time.

With `COc1ccc(Oc2nc3c(N)cc(C(F)(F)F)cc3nc2-c2ccccc2)cc1`, the TGI was 41.3 µM in [8]; 31.6 µM in assay [9]; > 100 µM in [10]; > 100 µM in [2]; > 100 µM in [3]; 57.8 µM in [4]. The TGI in [5], in assay [6] and in [7] was > 100 µM each time.

Take `CN(C)CCNC(=O)c1cccc2[nH]c(-c3ccc(Cl)cc3)nc12`: the TGI turned out to be 20.9 µM in assay [9]; 12 µM in assay [10]; 21 µM in assay [2]; 16.9 µM in assay [3]; 13.2 µM in assay [4]; 21.2 µM in assay [5]. In [6], the TGI is 31.9 µM.

Consider `CCOC(=O)CCC(C(=O)OCC)n1nnc2ccc(Nc3c(C)[n+]([O-])c4cc(F)c(OCC)cc4[n+]3[O-])cc21` (configuration not stated), for which the TGI in assay [8] was > 100 µM; in assay [1], > 100 µM; in assay [9], > 100 µM; in assay [10], > 100 µM; in assay [2] it was > 100 µM; in assay [3], 64.4 µM. Also, the TGI in assay [4] and in assay [5] was > 100 µM each time.

Turning to `CC(=O)Nc1ccc(C(=O)n2[nH]c(C)c(/C=C3\C(=O)C=Cc4ccccc43)c2=O)cc1`, the TGI in assay [8], in assay [9], in [10], in [3], in assay [4] and in [5] was > 100 µM each time. Further, the TGI in [6] was > 100 µM.

As for `Cc1cc(N)c2cc(NC(=O)Nc3ccc4nc(C)cc(N)c4c3)ccc2n1`, the TGI in assay [8], in assay [1], in assay [9], in assay [2], in assay [4] and in assay [5] was > 100 µM throughout. For the same compound, the TGI in [6] and in assay [7] was > 100 µM in each case.

As for `O=C1NC2OC(CO)C(O)C(O)C2O1` (configuration not stated), the TGI in assay [8], in assay [9], in [10], in assay [3], in assay [4] and in [5] was > 100 µM throughout. Further, the TGI in assay [6] was > 100 µM.

Turning to `COc1ccc(C2NC3=C(CCCC3)N2)cc1`, the TGI in assay [8] is > 100 µM; in assay [9], > 100 µM; in assay [10] it was 66 µM; in [3], > 100 µM; in [4], > 100 µM; in assay [5] it was > 100 µM. Besides, the TGI in assay [6] is > 100 µM.

For the compound `c1ccc(Sc2nc(Sc3ccccc3)nc(Sc3ccccc3)n2)cc1`, the TGI in [8] is > 100 µM; in assay [9], 29.4 µM; in [10], > 100 µM; in assay [3] it was > 100 µM; in assay [4], > 100 µM; in assay [5] it was > 100 µM. For the same compound, the TGI in assay [6] and in assay [7] was > 100 µM throughout.

On to `Brc1ccc(C[N+]23CN4CN(CN(C4)C2)C3)cc1`, for which the TGI is 33 µM in [8]; > 100 µM in assay [9]; 58.2 µM in assay [10]; > 100 µM in assay [3]; > 100 µM in [4]; > 100 µM in assay [6].

Consider `COc1cc(CC(=O)c2cc3c(cc2-c2ccccc2)OCO3)cc(OC)c1OC`, for which the TGI in assay [8], in assay [9], in assay [10], in [3], in [4] and in assay [5] was > 100 µM throughout. In addition, the TGI in assay [6] was > 100 µM.
